What was measured:
[1] = molecular target: T1, Nav1.5 voltage-gated sodium channels (Homo sapiens, UniProt Q14524); test: Whole-cell patch-clamp, repeated depolarisation protocol, MDA-MB-231 cells; assay type: cell-based
T1 construct: said cells express, inter alia, functional Nav1.5 voltage-gated sodium channels; endogenous in cells; host or cells: MDA-MB-231
Description: Merely as an illustration, the inventors chose to use the MDA-MB-231 line, which is a highly metastatic human mammary adenocarcinoma line, in the experiment. […] However, the pharmacological tools in question are not suitable for precise characterisation of the nature of the Nav1.5 sodium current involved in the metastatic process. […] For this reason, the inventors consider that 3-(R)-[3-(2-methoxyphenylthio)-2-(S)-methyl-propyl]amino-3,4-dihydro-2H-1,5-benzoxathiepine has anti-metastatic properties in relation to cancer cells expressing the Nav1.5 channel. As such, it is important to note that numerous types of metastatic cancer have been reported as expressing the Nav1.5 channel.
Cell culture: the MDA-MB-231 cells are cultured in a Dulbecco's modified Eagle's medium, (Life Technologies LTD, Paisley, UK) supplemented with 4 mM L-glutamine and 10% foetal calf serum. The cells are inoculated in 100 mm culture dishes and placed in an incubator at 37° C., 100% moisture and 5% CO2.
Electrophysiological measurements in “whole cell” configuration: the patch pipette (resistance 5-15 MΩ) contains a solution of: 5 mM NaCl, 145 mM CsCl, 2 mM MgCl2, 1 mM CaCl2, 10 mM HEPES and 11 mM EGTA, the pH is adjusted to 7.4 with CsOH. The reference electrode is immersed in the extracellular medium consisting of a solution of: 140 mM NaCl, 4 mM KCl, 2 mM MgCl2, 11 mM glucose, 10 mM HEPES, the pH is adjusted to 7.4 with NaOH. These two electrodes are connected to an Axopatch 200B amplifier (Axon Instrument). The currents are filtered using a Bessel filter at a frequency of 5 kHz and are sampled at a frequency of 5 kHz using the Digidata interface (1200). The data acquisition and analysis are performed using pClamp software (Axon Instrument). The holding potential is set to −110 mV to record the maximum Nav channel activity.
Two protocols were used: • 1/ “Voltage-dependent current INa” protocol for observing the maximum amplitude of INa according to the voltage applied. Depolarisations in 5 mV stages are performed at a frequency of 0.2 Hz, from −110 to +60 mV. […]

Cytotoxicity = assay type: cell-based
[2] = In vivo effect on normal cardiac function; conditions: even at high doses

T1 sequence (Q14524 1-2016 isoform Q14524-4): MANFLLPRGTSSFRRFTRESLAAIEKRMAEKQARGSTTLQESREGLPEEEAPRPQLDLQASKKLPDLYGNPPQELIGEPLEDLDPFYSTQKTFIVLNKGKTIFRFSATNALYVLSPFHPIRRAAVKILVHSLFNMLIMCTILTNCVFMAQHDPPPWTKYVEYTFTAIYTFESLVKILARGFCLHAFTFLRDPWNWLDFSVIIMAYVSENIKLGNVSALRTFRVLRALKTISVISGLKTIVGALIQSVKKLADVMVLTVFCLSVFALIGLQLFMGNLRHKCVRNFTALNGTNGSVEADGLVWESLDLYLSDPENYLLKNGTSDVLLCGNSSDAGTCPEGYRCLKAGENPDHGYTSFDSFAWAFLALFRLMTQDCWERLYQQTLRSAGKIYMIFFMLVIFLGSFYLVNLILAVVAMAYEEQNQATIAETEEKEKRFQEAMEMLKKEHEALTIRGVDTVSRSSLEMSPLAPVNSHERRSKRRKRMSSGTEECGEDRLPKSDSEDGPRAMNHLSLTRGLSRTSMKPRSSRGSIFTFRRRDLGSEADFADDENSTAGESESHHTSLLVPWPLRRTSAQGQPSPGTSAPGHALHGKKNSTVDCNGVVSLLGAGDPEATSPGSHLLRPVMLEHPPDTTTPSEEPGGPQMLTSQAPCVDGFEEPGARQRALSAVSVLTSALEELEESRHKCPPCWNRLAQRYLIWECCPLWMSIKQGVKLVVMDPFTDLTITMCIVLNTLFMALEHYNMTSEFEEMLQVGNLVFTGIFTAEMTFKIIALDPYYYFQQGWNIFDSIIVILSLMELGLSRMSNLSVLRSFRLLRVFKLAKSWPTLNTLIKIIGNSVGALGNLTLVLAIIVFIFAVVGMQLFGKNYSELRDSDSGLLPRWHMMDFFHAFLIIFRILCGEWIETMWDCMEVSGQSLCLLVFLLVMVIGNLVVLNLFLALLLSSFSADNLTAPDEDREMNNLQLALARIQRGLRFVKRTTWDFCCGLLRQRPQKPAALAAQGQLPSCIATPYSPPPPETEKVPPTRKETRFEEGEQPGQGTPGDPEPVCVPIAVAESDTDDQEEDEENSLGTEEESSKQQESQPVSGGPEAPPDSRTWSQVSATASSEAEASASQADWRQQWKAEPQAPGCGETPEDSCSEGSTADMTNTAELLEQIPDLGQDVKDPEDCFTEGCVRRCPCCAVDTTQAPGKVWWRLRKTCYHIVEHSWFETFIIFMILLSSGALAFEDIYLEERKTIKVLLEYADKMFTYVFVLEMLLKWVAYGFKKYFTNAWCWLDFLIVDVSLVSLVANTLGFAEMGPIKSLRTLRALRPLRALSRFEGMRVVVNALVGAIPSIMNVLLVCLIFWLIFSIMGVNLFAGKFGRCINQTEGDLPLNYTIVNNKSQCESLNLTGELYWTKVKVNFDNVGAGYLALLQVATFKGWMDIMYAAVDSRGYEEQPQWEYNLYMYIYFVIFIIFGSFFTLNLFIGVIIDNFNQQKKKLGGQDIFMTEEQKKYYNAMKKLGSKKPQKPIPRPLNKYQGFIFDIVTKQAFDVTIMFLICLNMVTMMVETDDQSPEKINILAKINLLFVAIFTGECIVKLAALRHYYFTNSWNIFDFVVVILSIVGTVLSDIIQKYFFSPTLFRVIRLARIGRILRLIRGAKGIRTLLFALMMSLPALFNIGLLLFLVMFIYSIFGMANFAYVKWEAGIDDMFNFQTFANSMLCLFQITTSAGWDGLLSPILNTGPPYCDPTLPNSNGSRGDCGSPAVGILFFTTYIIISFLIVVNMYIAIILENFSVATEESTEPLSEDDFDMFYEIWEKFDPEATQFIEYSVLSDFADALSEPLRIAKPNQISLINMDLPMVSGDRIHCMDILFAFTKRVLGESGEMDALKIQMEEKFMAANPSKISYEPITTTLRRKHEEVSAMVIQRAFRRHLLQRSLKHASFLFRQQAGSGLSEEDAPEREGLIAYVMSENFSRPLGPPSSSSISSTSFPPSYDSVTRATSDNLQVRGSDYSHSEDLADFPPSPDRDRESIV

Structure (SMILES)	IC50 ([1]; MDA-MB-231 cells, whole cell patch-clamp, concentration-dependent, read-out: reduction of the metastatic Nav1.5 current (IC50))	cytotoxicity (Cytotoxicity)	interference with normal cardiac function [2]	peak current inhibition ([1]; 1 µM)	peak current inhibition ([1]; 5 µM)
COc1ccccc1SC[C@@H](C)CN[C@@H]1COc2ccccc2SC1 [3-(R)-[3-(2-methoxyphenylthio)-2-(S)-methyl-propyl]amino-3,4-dihydro-2H-1,5-benzoxathiepine]	1500 nM	not cytotoxic	does not interfere with normal cardiac function	–	–
NC1=N[C@H](O)[C@H]2[C@H]3O[C@]4(O)O[C@@H]([C@@H](O)[C@@]2(N1)[C@@H]4O)[C@]3(O)CO [tetrodotoxin]	–	–	–	30±7%	54±8%

From patent publication US9603835B2, “Use of 3-(R)-[3-(2-methoxyphenylthio)-2-(S)-methylpropyl]amino-3,4-dihydro-2H-1,5-benzoxathiepine for treating cancer and in particular for preventing and/or treating cancer metastases” (PIERRE FABRE MEDICAMENT, priority 2011, dated 2017)
